Results reported in ChEMBL document CHEMBL1132396, “Potent, orally bioavailable somatostatin agonists: good absorption achieved by urea backbone cyclization” (Bioorg Med Chem Lett, 1999).
Several values for one entry are separate records, joined by “and”; a condition that tells them apart may be missing. Identical values can stand only once. Blank lines part the entries; values can stand above or below the compound they belong to.

Key:
[1] = target: T1, Somatostatin receptor type 2 (Homo sapiens, UniProt P30874); assay: In vitro binding affinity was evaluated against human Somatostatin receptor type 2 (hSSTR-2)
T1 sequence (P30874 whole entry): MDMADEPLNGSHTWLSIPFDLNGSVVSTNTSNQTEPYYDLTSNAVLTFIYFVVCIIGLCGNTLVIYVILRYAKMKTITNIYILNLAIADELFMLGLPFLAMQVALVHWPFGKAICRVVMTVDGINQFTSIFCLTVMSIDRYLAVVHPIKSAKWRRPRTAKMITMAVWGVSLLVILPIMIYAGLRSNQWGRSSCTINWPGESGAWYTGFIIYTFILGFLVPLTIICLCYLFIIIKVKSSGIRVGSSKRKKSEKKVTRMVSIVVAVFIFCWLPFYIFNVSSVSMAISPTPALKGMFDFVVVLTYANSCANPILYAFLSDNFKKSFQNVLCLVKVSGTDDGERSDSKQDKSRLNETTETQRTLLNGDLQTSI

[2] = target: Somatostatin receptor type 2 (Mus musculus, UniProt P30875); assay: In vitro binding affinity was evaluated against mouse Somatostatin receptor type 2 (mSSTR-2)
Somatostatin receptor type 2 (Mus musculus, UniProt P30875), sequence (P30875 whole entry): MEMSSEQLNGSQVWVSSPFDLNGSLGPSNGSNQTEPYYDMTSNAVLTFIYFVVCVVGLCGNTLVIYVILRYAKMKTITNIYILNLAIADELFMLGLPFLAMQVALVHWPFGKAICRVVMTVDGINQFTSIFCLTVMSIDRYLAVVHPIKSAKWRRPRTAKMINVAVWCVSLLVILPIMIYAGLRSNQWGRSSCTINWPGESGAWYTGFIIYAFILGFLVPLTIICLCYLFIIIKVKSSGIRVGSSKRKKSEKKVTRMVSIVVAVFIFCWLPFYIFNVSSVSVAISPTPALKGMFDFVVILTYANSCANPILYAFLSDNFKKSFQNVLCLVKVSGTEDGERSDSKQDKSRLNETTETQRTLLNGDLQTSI

Rattus norvegicus = species on record: Rattus norvegicus; assay: Compound tested for the inhibition of growth hormone release was determined using primary cultures of rat anterior pituitary cells; type: functional, cell-based; conditions: Pituitary gland cell
[3] = target: Somatostatin receptor type 3 (Homo sapiens, UniProt P32745); assay: In vitro binding affinity was evaluated against human Somatostatin receptor type 3 (hSSTR-3)
Somatostatin receptor type 3, sequence (P32745 whole entry): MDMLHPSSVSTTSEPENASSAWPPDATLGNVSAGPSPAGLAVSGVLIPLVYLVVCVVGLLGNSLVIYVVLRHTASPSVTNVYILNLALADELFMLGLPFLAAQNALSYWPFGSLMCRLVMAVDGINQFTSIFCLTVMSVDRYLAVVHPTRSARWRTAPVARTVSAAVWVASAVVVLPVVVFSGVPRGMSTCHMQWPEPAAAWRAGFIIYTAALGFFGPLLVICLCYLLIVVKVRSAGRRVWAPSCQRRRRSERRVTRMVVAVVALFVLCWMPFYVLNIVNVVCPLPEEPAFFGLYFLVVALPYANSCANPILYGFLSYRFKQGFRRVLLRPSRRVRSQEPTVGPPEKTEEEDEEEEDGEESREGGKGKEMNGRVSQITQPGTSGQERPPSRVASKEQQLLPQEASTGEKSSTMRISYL

[4] = target: Somatostatin receptor type 5 (Homo sapiens, UniProt P35346); assay: In vitro binding affinity was evaluated against human Somatostatin receptor type 5 (hSSTR-5)
[5] = target: T1, Somatostatin receptor type 2; assay: In vitro binding affinity was evaluated against human Somatostatin receptor type 2 in experiment 2
[6] = target: T1, Somatostatin receptor type 2; assay: In vitro binding affinity was evaluated against human Somatostatin receptor type 2 in experiment 1
[7] = Bioavailability; type: ADME, organism-based, Canis lupus familiaris; conditions: beagle, dog, in vivo
[8] = Area under curve after 1 mpk peroral administration to beagles; type: ADME, Canis lupus familiaris; conditions: Beagle, dog, in vivo, po, 1 mg/kg
[9] = Cmax value after 1 mpk peroral administration to beagles; type: ADME, organism-based, Canis lupus familiaris; parameters: dose 1 mpk, route oral; conditions: Beagle, dog, in vivo, po, 1 mg/kg
[10] = Bioavailability after 2 mpk peroral administration to beagles; type: ADME, organism-based, Canis lupus familiaris; conditions: Beagle, dog, in vivo, po, 2 mg/kg
[11] = target: Somatostatin receptor type 1 (Homo sapiens, UniProt P30872); assay: In vitro binding affinity was evaluated against human Somatostatin receptor type 1 (hSSTR-1)
Somatostatin receptor type 1, sequence (P30872 whole entry): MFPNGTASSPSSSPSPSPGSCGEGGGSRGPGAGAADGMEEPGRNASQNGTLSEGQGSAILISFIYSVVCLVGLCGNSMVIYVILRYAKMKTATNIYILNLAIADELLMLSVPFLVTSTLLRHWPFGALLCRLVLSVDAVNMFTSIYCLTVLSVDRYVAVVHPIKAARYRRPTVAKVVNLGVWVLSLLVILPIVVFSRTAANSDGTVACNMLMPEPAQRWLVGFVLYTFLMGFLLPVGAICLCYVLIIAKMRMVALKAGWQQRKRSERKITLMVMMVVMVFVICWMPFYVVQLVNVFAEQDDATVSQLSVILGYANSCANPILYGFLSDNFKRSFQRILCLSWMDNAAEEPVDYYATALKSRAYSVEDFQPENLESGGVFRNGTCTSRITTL

[12] = Cmax value after 2 mpk peroral administration to beagles; type: ADME, organism-based, Canis lupus familiaris; parameters: dose 2 mpk, route oral; conditions: Beagle, dog, in vivo, po, 2 mg/kg
[13] = Area under curve after 2 mpk peroral administration to beagles; type: ADME, Canis lupus familiaris; conditions: Beagle, dog, in vivo, po, 2 mg/kg
[14] = target: Somatostatin receptor type 4 (Homo sapiens, UniProt P31391); assay: In vitro binding affinity was evaluated against human Somatostatin receptor type 4 (hSSTR-4)
Somatostatin receptor type 4, sequence (P31391 whole entry): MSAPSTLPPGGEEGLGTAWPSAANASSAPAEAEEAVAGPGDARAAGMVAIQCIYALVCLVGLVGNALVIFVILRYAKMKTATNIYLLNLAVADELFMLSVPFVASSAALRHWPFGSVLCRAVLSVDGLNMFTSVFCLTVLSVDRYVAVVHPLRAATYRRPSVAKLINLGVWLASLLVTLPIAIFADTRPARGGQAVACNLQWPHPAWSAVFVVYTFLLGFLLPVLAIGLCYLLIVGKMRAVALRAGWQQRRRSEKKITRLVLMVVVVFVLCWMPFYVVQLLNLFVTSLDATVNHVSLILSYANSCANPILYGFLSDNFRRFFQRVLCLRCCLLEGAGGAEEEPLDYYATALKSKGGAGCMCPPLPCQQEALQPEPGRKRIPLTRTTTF

[15] = Bioavailability after 1 mpk peroral administration to beagles; type: ADME, organism-based, Canis lupus familiaris; conditions: Beagle, dog, in vivo, po, 1 mg/kg

Structure (SMILES): C[C@@H](c1c[nH]c2ccccc12)[C@H](C(=O)N(C)C[C@H]1OC[C@H](N)CO1)N1CCN(CCC(c2ccccc2)c2ccccc2)C1=O
Ki [1]: 4.6 nM

Structure (SMILES): C[C@@H](c1c[nH]c2ccccc12)[C@H](C(=O)N(C)C[C@H]1OC[C@H](N)CO1)N1CCN(CCCc2ccccc2)C1=O
Ki [1]: 11 nM

Structure (SMILES): CN(C(=O)N1CCC2(CCc3ccccc32)CC1)[C@H](Cc1c[nH]c2ccccc12)C(=O)NCCCCCN
Ki [2]: > 10 nM

Structure (SMILES): COC(=O)[C@@H](CCCCN)NC(=O)[C@@H](Cc1c[nH]c2ccccc12)OC(=O)N1CCC2(CCc3ccccc32)CC1
Ki [2]: 10 nM

Structure (SMILES): C[C@@H](c1c[nH]c2ccccc12)[C@H](C(=O)N(C)C[C@H]1OC[C@H](N)CO1)N1CCN(C2CCCN(c3ccccc3)C2)C1=O (stereo partly drawn)
IC50 (Rattus norvegicus): 70 nM | Ki [3]: > 10000 nM | Ki [4]: 1400 nM | Ki [5]: 14 nM | Ki [6]: 2.1 nM | bioavailability [7]: 15%

Structure (SMILES): C[C@@H](c1c[nH]c2ccccc12)[C@H](C(=O)NC[C@H]1OC[C@H](N)CO1)N1CCN(CCCc2ccccc2)C1=O
Ki [1]: 18 nM

Structure (SMILES): NCCCCCNC(=O)[C@@H](Cc1c[nH]c2ccccc12)NC(=O)N1CCC2(CCc3ccccc32)CC1
Ki [2]: 10 nM

Structure (SMILES): C[C@@H](c1c[nH]c2ccccc12)[C@H](C(=O)NC[C@H]1OC[C@H](N)CO1)N1CCN(CCC(c2ccccc2)c2ccccc2)C1=O
Ki [1]: 8.5 nM and 1.1 nM

Structure (SMILES): C[C@@H](c1c[nH]c2ccccc12)[C@H](C(=O)NC[C@H]1OC[C@H](N)CO1)N1CCN(CCc2cccc3ccccc23)C1=O
Ki [1]: 122 nM

Structure (SMILES): C[C@@H](c1c[nH]c2ccccc12)[C@H](C(=O)NC[C@H]1OC[C@H](N)CO1)N1CCN(Cc2ccc(Cl)c(Cl)c2)C1=O
Ki [1]: 7.3 nM | bioavailability [7]: 21%

Structure (SMILES): C[C@@H](c1c[nH]c2ccccc12)[C@H](C(=O)NC[C@H]1OC[C@H](N)CO1)N1CCN(CCCn2c(O)nc3ccccc32)C1=O
Ki [1]: 40 nM

The next lines start with the values.

Ki [1]: 47 nM
Structure (SMILES): C[C@@H](c1c[nH]c2ccccc12)[C@H](C(=O)N[C@H](CCCCN)C(=O)OC(C)(C)C)N1CCN(CCc2ccccc2)C1=O

Ki [1]: 14 nM
Structure (SMILES): C[C@@H](c1c[nH]c2ccccc12)[C@H](C(=O)N[C@H](CCCCN)C(=O)OC(C)(C)C)N1CCN(Cc2ccccc2)C1=O

Ki [1]: 1.4 nM
Structure (SMILES): C[C@@H](c1c[nH]c2ccccc12)[C@H](C(=O)N[C@H](CCCCN)C(=O)OC(C)(C)C)N1CCN(C2CCCN(c3ccccc3)C2)C1=O (stereo partly drawn)

Ki [1]: 1.3 nM | bioavailability [7]: 3%
Structure (SMILES): C[C@@H](c1c[nH]c2ccccc12)[C@H](C(=O)N[C@H](CCCCN)C(=O)OC(C)(C)C)N1CCN(Cc2ccc(C(F)(F)F)cc2)C1=O

Ki [1]: 2.2 nM | AUC [8]: 333 ng·h/mL | Cmax [9]: 103 ng/mL
Structure (SMILES): C[C@@H](c1c[nH]c2ccccc12)[C@@H](NC(=O)N(C)CCCc1ccccc1)C(=O)N[C@H](CCCCN)C(=O)OC(C)(C)C

Ki [5]: 6.3 nM | Ki [6]: 40 nM
Structure (SMILES): C[C@@H](c1c[nH]c2ccccc12)[C@H](C(=O)N[C@H](CCCCN)C(=O)OC(C)(C)C)N1CCN(C2CCC(c3ccccc3)CC2)C1=O (stereo partly drawn)

Ki [1]: 5.9 nM
Structure (SMILES): CC(CCN1CCN([C@@H](C(=O)N[C@H](CCCCN)C(=O)OC(C)(C)C)[C@@H](C)c2c[nH]c3ccccc23)C1=O)c1ccccc1 (stereo partly drawn)

Ki [1]: 80 nM
Structure (SMILES): C[C@@H](c1c[nH]c2ccccc12)[C@H](C(=O)N[C@H](CCCCN)C(=O)OC(C)(C)C)N1CCN(c2cccc(-c3ccccc3)c2)C1=O

Ki [2]: 2 nM
Structure (SMILES): COC(=O)[C@@H](CCCCN)NC(=O)[C@@H](Cc1c[nH]c2ccccc12)NC(=O)N1CCC2(CCc3ccccc32)CC1

bioavailability [10]: 5% | Ki [3]: 1290 nM | Ki [4]: 284 nM | Ki [11]: 712 nM | Cmax [12]: 350 ng/mL | Ki [1]: 3.6 nM | AUC [13]: 837 ng·h/mL | Ki [14]: 83 nM
Structure (SMILES): C[C@@H](c1c[nH]c2ccccc12)[C@H](C(=O)N[C@H](CCCCN)C(=O)OC(C)(C)C)N1CCN(CCCc2ccccc2)C1=O

Ki [1]: 12 nM
Structure (SMILES): CC(CCc1ccccc1)N1CCN([C@@H](C(=O)N[C@H](CCCCN)C(=O)OC(C)(C)C)[C@@H](C)c2c[nH]c3ccccc23)C1=O (stereo partly drawn)

Ki [1]: 1 nM | AUC [8]: 314 ng·h/mL | Cmax [9]: 86 ng/mL | bioavailability [15]: 1%
Structure (SMILES): C[C@@H](c1c[nH]c2ccccc12)[C@@H](NC(=O)NCCCc1ccccc1)C(=O)N[C@H](CCCCN)C(=O)OC(C)(C)C
